The source of these data is US8835440B2, “Cyclic pyrimidin-4-carboxamides as CCR2 receptor antagonists for treatment of inflammation, asthma and COPD” (Boehringer Ingelheim International GmbH, priority 2008, dated 2014).

The assay has as its target T1, CCR2 (Homo sapiens, UniProt P41597).
T1 construct: Membranes were prepared from THP-1 cells; endogenous in cells; host or cells: THP-1 cells (membrane preparation)
T1 sequence (P41597 1-360 isoform P41597-2): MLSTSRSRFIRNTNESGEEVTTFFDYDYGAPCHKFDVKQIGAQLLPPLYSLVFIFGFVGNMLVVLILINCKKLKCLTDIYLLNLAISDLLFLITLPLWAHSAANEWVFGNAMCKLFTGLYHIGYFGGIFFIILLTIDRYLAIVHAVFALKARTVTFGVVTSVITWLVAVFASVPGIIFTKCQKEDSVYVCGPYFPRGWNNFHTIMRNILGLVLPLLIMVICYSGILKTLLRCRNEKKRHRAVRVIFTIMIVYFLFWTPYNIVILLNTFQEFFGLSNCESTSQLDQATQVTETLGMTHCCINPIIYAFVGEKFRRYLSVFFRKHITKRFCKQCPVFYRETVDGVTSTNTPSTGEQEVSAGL
Description: CCR2 receptor membrane binding assay ([125I]MCP-1, THP-1 cell membranes, SPA beads). The conditions noted are these: for remaining activity at 10 µM: read-out: CCR2 % ctrl @ 10 μM; for Ki: dissociation constant hKi, [125I]MCP-1 binding to THP-1 membranes. The method, boiled down:
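Human THP-1 monocytic cell membranes, pre-coupled to WGA-PVT SPA beads, were incubated with compound and [125I]MCP-1 (ca. 25000 cpm) in 25 mM HEPES pH 7.2, 5 mM MgCl2, 0.5 mM CaCl2, 0.2% BSA, at 1% DMSO final. Bound radioactivity was counted after 8 h, and Ki was obtained by iterative mass-action fitting.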

The mark [1] stands for this setting: @ 10 μM test compound, THP-1 membranes.

Consider `Cc1c(NC[C@@H]2CCN(c3ccccc3)C2)ncnc1C(=O)N1CCC(N2CCC(N(C)S(C)(=O)=O)CC2)CC1` [Example 149], for which the affinity corresponds to a Ki of 41 nM. Moreover, the remaining activity at 10 µM under setting [1] came out at 10%. Consider `COC1COCCC1NC1CCN(C(=O)c2ncnc(NCC3Cc4ccccc4C3)c2C)CC1` (stereo not drawn) [Example 159fc], for which the affinity, expressed as Ki, was 13 nM. `Cc1c(NCCc2ccc(Cl)c(Cl)c2)ncnc1C(=O)N1CCC(N2CCCC2)CC1` [Example 253] displayed a Ki of 350 nM. The remaining activity at 10 µM under setting [1] worked out at 17%. Turning to `CO[C@@H]1COCC[C@@H]1N(C)C1CCN(C(=O)c2ncnc(NCc3ccc(C(C)(C)C)cc3)c2C)CC1` [Example 228ha], affinity was put at a Ki of 32 nM. Molecule `Cc1c(NCc2ccc(C(C)(C)C)cc2)ncnc1C(=O)N1CCC(N2CCC(n3c(C)nnc3C)CC2)CC1` [Example 212] gave a Ki of 731 nM. The remaining activity at 10 µM under setting [1] stood at 24%. Turning to `Cc1ccc(CNc2ncnc(C(=O)N3CCC(N4CCOCC4)CC3)c2C)cc1F` [Example 44], the Ki stood at 1640 nM. In addition, the remaining activity at 10 µM under setting [1] was 27%. The molecule `CO[C@H]1CN(C2CCN(C(=O)c3ncnc(NCc4ccc(Cl)c(Cl)c4)c3C)CC2)CC[C@H]1NS(C)(=O)=O` [Example 185] returned a Ki of 4210 nM. The remaining activity at 10 µM under setting [1] came out at 53%. The molecule `Cc1c(OCc2ccc(C#N)cc2)ncnc1C(=O)N1CCC(N2CCC(N(C)S(C)(=O)=O)CC2)CC1` [Example 293] displayed a Ki of 717 nM. Under setting [1], the remaining activity at 10 µM stood at 27%. Consider `Cc1c(NCc2ccc(Cl)c(C(F)(F)F)c2)ncnc1C(=O)N1CCC(N2CCCCC2)CC1` [Example 142], for which the affinity, expressed as Ki, was 529 nM. Also, under setting [1], the remaining activity at 10 µM was 8%.

Regarding `COC1COCCC1N(C)C1CCN(C(=O)c2ncnc(NCc3ccc(C(C)(C)C)cc3)c2C)CC1` (stereo not drawn) [Example 275b], the Ki was found to be 26 nM. Moreover, under setting [1], the remaining activity at 10 µM came out at 3%.

With `Cc1c(OCC2CCN(c3ccccc3)C2)ncnc1C(=O)N1CCC(N2CCC(N(C)S(C)(=O)=O)CC2)CC1` (stereo not drawn) [Example 295], the Ki is 140 nM. The remaining activity at 10 µM under setting [1] was 0%. `CCS(=O)(=O)N(C)C1CCN(C2CCN(C(=O)c3ncnc(NCC4CCCN(c5ccccc5)C4)c3C)CC2)CC1` (stereo not drawn) [Example 38] showed a Ki of 69 nM. In addition, the remaining activity at 10 µM under setting [1] was determined as 13%.

In the case of `Cc1c(NCc2ccc(C(C)(C)C)cc2)ncnc1C(=O)N1CCC(N2CCC(NS(=O)(=O)C(C)C)CC2)CC1` [Example 205], the Ki turned out to be 135 nM. Further, under setting [1], the remaining activity at 10 µM amounted to 11%. In turn, `Cc1c(NCC2Cc3ccccc3C2)ncnc1C(=O)N1CCC(N2CCC(NS(C)(=O)=O)CC2)CC1` [Example 73] came in with a Ki of 38 nM. Further, under setting [1], the remaining activity at 10 µM stood at 2%. As to `CN(C1CCN(C2CCN(C(=O)c3ncnc(NCc4ccc(C(C)(C)C)cc4)c3C#N)CC2)CC1)S(C)(=O)=O` [Example 249], the Ki was 3250 nM. Besides, the remaining activity at 10 µM under setting [1] came to 36%. In the case of `Cc1c(NCC2COc3ccccc3C2)ncnc1C(=O)N1CCC(N2CCC(O)CC2)CC1` (stereo not drawn) [Example 19], the Ki was 269 nM. Moreover, the remaining activity at 10 µM under setting [1] was 40%. With `CCS(=O)(=O)NC1CCN(C2CCN(C(=O)c3ncnc(NCc4ccc(Cl)c(Cl)c4)c3C)CC2)CC1` [Example 195], the Ki is 141 nM. Also, under setting [1], the remaining activity at 10 µM worked out at 14%.

`Cc1c(NCc2ccc(C(C)(C)C)cc2)ncnc1C(=O)N1CCCC(N2CCOCC2)CC1` (stereo not drawn) [Example 162] gave a Ki of 3800 nM. Further, the remaining activity at 10 µM under setting [1] stood at 43%. `Cc1c(NCc2ccc(Cl)c(Cl)c2)ncnc1C(=O)N1CCC(N2CCC(N3CCCS3(=O)=O)CC2)CC1` [Example 189]: the Ki was determined as 170 nM. Moreover, the remaining activity at 10 µM under setting [1] was determined as 13%. On to `Cc1c(NCC2CCCC(c3cccc(F)c3)C2)ncnc1C(=O)N1CCC(N2CCC(N(C)S(C)(=O)=O)CC2)CC1` (stereo not drawn) [Example 159db], for which the Ki came out at 16 nM. In turn, `Cc1c(NCC2COc3ccccc3C2)ncnc1C(=O)N1CCC(N2CCC(N(C)S(C)(=O)=O)CC2)CC1` (stereo not drawn) [Example 57] displayed a Ki of 93 nM. Moreover, the remaining activity at 10 µM under setting [1] was found to be 10%. The corresponding values for `Cc1c(NCCc2ccc(Cl)c(Cl)c2)ncnc1C(=O)N1CCC(N2CCC[C@H](C(N)=O)C2)CC1` [Example 175] are 434 nM and 14%. Regarding `Cc1c(NCC2CCCOC2)ncnc1C(=O)N1CCC(N2CCC(N(C)S(C)(=O)=O)CC2)CC1` (stereo not drawn) [Example 159bc], the Ki was 3490 nM. `Cc1c(NCc2ccc(C(C)(C)C)nc2)ncnc1C(=O)N1CCC(N2CCC(N(C)S(C)(=O)=O)CC2)CC1` [Example 54] gave a Ki of 356 nM. The remaining activity at 10 µM under setting [1] was found to be 13%.

`COC1CCN(C2CCN(C(=O)c3ncnc(NCc4ccc(C)c(Cl)c4)c3C)CC2)CC1` [Example 98] registered a Ki of 214 nM. Further, the remaining activity at 10 µM under setting [1] was found to be 2%. The molecule `Cc1c(NCCc2ccc(Cl)c(Cl)c2)ncnc1C(=O)N1CCC(N2CCN(S(C)(=O)=O)CC2)CC1` [Example 285] registered a Ki of 1310 nM. Also, the remaining activity at 10 µM under setting [1] worked out at 35%. With `Cc1c(NCC2Cc3ccccc32)ncnc1C(=O)N1CCC(N2CCC(N(C)S(C)(=O)=O)CC2)CC1` (stereo not drawn) [Example 159nb], the Ki is 88 nM. Molecule `CCS(=O)(=O)N(C)C1CCN(C2CCN(C(=O)c3ncnc(NC[C@@H]4C[C@H]4c4ccccc4)c3C)CC2)CC1` [Example 147] yielded a Ki of 40 nM. Also, under setting [1], the remaining activity at 10 µM came out at 8%. `Cc1c(NCc2ccc(Cl)c(Cl)c2)ncnc1C(=O)N1CCC(N2CCCOCC2)CC1` [Example 242] had a Ki of 516 nM. The remaining activity at 10 µM under setting [1] worked out at 21%.

Regarding `Cc1c(NCc2ccc(C(C)(C)C)cc2)ncnc1C(=O)N1CCC(N2CCC(Cc3ccc(F)c(F)c3)CC2)CC1` [Example 228gl], the Ki stood at 537 nM.

On to `Cc1c(NCC2CCC(c3ccc(C(F)(F)F)cc3)O2)ncnc1C(=O)N1CCC(N2CCC(N(C)S(C)(=O)=O)CC2)CC1` (stereo not drawn) [Example 159hb], for which the Ki was 20 nM. `Cc1c(NCCc2cccc(Cl)c2)ncnc1C(=O)N1CCC(N2CCC(O)CC2)CC1` [Example 122] yielded a Ki of 415 nM. For the same molecule, under setting [1], the remaining activity at 10 µM turned out to be 23%.

`CO[C@@H]1CN(C2CCN(C(=O)c3ncnc(NCc4ccc(Cl)c(Cl)c4)c3C)CC2)CC[C@H]1N(C)S(C)(=O)=O` [Example 227] yielded a Ki of 333 nM. The remaining activity at 10 µM under setting [1] was 22%. Molecule `Cc1ccc(CNc2ncnc(C(=O)N3CCC(N4CCCCC4)CC3)c2C)cc1F` [Example 104] showed a Ki of 617 nM. For the setting “@ 10 μM test compound, THP-1 membranes, 10 µM”, the “CCR2 % ctrl @ 10 μM” value was 31 % ctrl. `Cc1c(NCc2ccc(Cl)c(Cl)c2)ncnc1C(=O)N1CCC(N2CCCC(F)C2)CC1` (stereo not drawn) [Example 233] had a Ki of 194 nM. Under setting [1], the remaining activity at 10 µM came out at 8%. `Cc1c(NCC2CCC(c3ccc(F)cc3)C2)ncnc1C(=O)N1CCC(N2CCC(N(C)S(C)(=O)=O)CC2)CC1` (stereo not drawn) [Example 159q] returned a Ki of 10 nM. On the same count and under the same terms, the same measure for `Cc1c(NCC2CCC(C)CC2)ncnc1C(=O)N1CCC(N2CCC(N(C)S(C)(=O)=O)CC2)CC1` (stereo not drawn) [Example 159l]: 22 nM. Molecule `CO[C@H]1CCN(C2CCN(C(=O)c3ncnc(NCc4ccc(C(C)(C)C)cc4)c3C)CC2)C1` [Example 220] displayed a Ki of 979 nM. In addition, the remaining activity at 10 µM under setting [1] was determined as 27%. In the case of `CO[C@H]1COCC[C@H]1NC1CCN(C(=O)c2ncnc(NC[C@H]3CCC[C@@H](c4ccccc4)C3)c2C)CC1` [Example 275dh], the Ki came to 3 nM.

Turning to `CNC(=O)C1CCN(C2CCN(C(=O)c3ncnc(NCc4ccc(C(C)(C)C)cc4)c3C)CC2)CC1` [Example 261], the affinity corresponds to a Ki of 120 nM. Under setting [1], the remaining activity at 10 µM was 8%.

Regarding `Cc1c(NCC2Cc3ccccc3O2)ncnc1C(=O)N1CCC(N2CCC(N(C)S(C)(=O)=O)CC2)CC1` (stereo not drawn) [Example 159qb], the Ki is 69 nM. As for `Cc1c(NCC2CCC(c3ccccc3)CC2)ncnc1C(=O)N1CCC(N2CCC(O)CC2)CC1` (stereo not drawn) [Example 121], the affinity corresponds to a Ki of 147 nM. Besides, the remaining activity at 10 µM under setting [1] was determined as 15%. Regarding `Cc1c(NCc2ccc(C(C)(C)C)cc2)ncnc1C(=O)N1CCC(NC2CCOCC2F)CC1` (stereo not drawn) [Example 228d], the Ki worked out at 91 nM. For the same molecule, under setting [1], the remaining activity at 10 µM came to 1%. In the case of `Cc1c(NCc2ccc(C(C)(C)C)cc2)ncnc1C(=O)N1CCC(N2CCC(O)CC2)CC1` [Example 7], the Ki amounted to 306 nM. Moreover, the remaining activity at 10 µM under setting [1] was determined as 16%.

In turn, `Cc1c(NCc2ccc(Cl)c(Cl)c2)ncnc1C(=O)N1CCC(N2CCC(F)(F)CC2)CC1` [Example 244] showed a Ki of 366 nM. Further, the remaining activity at 10 µM under setting [1] is 24%. In turn, `CNS(=O)(=O)C1CCN(C2CCN(C(=O)c3nc(C)nc(NCc4ccc(C(C)(C)C)cc4)c3C)CC2)CC1` [Example 262] displayed a Ki of 224 nM. The remaining activity at 10 µM under setting [1] amounted to 13%. As to `Cc1c(NCC2CC(c3ccccc3)CO2)ncnc1C(=O)N1CCC(N2CCC(N(C)S(C)(=O)=O)CC2)CC1` (stereo not drawn) [Example 159eb], affinity was put at a Ki of 72 nM. With `Cc1ccc(CCNc2ncnc(C(=O)N3CCC(N4CCC(O)CC4)CC3)c2C)cc1C` [Example 126], the Ki was 399 nM. Further, the remaining activity at 10 µM under setting [1] amounted to 23%.

A word on the Ki: it is a measure of affinity in units of concentration, obtained from inhibition or displacement. Read a low Ki as tighter binding.
